Measured values: US12522594B2, “2-heteroaryl-3-oxo-2,3-dihydropyridazine-4-carboxamides for the treatment of cancer” (Deutsches Krebsforschungszentrum, priority 2017, dated 2026)
Where “and” joins values, the source holds several entries; their conditions need not be identical. Equal entries are not always repeated.

Key:
Assay type in all cases: cell-based
AHR [1] = target: T1, AHR (Homo sapiens, UniProt P35869); test: In vitro assay 1: antagonism in human cell line (transactivation assay, U87 cells prestimulated with kynurenic acid, DRE firefly luciferase reporter); parameters: host or cells: U87 glioblastoma cells, stably transfected with DRE firefly luciferase and renilla reporter constructs; details: 150 uM kynurenic acid, 20 hours, read-out: Assay 1: AHR-luc Hum Antagonism IC50
T1 sequence (P35869 11-848): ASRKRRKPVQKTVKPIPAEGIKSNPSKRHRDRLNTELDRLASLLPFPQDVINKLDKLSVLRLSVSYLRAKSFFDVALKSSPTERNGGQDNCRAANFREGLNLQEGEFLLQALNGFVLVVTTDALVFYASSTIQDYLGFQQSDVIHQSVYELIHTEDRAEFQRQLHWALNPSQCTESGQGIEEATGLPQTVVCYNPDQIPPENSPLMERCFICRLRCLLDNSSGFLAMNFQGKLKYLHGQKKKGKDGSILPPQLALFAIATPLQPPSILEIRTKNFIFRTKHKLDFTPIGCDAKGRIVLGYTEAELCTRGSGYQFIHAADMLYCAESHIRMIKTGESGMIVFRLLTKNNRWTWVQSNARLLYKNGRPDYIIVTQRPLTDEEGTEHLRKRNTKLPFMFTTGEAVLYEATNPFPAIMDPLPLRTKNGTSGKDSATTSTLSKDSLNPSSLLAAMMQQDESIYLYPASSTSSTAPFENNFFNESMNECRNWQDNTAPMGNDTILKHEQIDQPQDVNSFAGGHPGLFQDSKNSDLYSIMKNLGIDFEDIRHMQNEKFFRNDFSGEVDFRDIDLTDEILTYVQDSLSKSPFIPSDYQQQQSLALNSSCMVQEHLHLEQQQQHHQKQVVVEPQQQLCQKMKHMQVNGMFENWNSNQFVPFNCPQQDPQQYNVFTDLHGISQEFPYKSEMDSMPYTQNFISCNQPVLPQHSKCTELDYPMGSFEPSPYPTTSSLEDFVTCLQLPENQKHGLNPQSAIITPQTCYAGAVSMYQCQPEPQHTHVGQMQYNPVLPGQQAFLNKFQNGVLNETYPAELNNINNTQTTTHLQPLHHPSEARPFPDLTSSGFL
Summary of the method: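 U87 glioblastoma cells with endogenous AHR, stably carrying a DRE-driven firefly luciferase reporter and a constitutive renilla reporter. Cells prestimulated with the AHR agonist kynurenic acid before compound addition; data normalized to positive and negative controls.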

AHR [2] = target: T1, AHR; test: In vitro assay 2: agonism in human cell line (transactivation assay, U87 cells, DRE firefly luciferase reporter); parameters: host or cells: U87 glioblastoma cells, stably transfected with DRE firefly luciferase and renilla reporter constructs; details: no kynurenic acid, 20 hours, read-out: Assay 2: AHR-luc Hum Agonism IC50
Summary of the method: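 U87 glioblastoma cells with endogenous AHR, stably carrying DRE-driven firefly luciferase and constitutive renilla reporters. 300 uM kynurenic acid served as positive activation control; data normalized to positive and negative controls.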

AHR [3] = target: T1, AHR; test: In vitro assay 3: AHR-regulated CYP1A1 expression in human cell line (U937, qPCR, KA stimulation); details: U937 cells, 200 uM KA, 6 hours, CYP1A1 expression by qPCR; read-out: Assay 3: Hum CYP1A1 Antagonism IC50
Summary of the method: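 U937 human monocytic cells were stimulated with 200 uM KA for 6 h, with or without compound at eight concentrations from 1 nM to 3 uM, in duplicate. CYP1A1 mRNA was quantified by Taqman qPCR as fold expression normalised to HPRT. Unstimulated cells served as negative control.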

human monocytes = test: In vitro assay 4: rescue of TNFα production from human primary monocytes (LPS + KA); details: one value per donor; for Individual Donors Conc of highest rescue: concentration (of 1, 0.3, 0.1 uM tested) at which highest TNFα rescue was observed; for Individual Donors % rescue TNFα normalised to ref cmpd: human monocytes, 10 ng/mL LPS + 200 uM KA, 18 hours, highest percent rescue relative to highest rescue with GNF-351
Protocol: In Vitro Assay 4: Rescue of TNFα Production from Human Primary Monocytes
The ability of the substances to enhance immune cell activity was determined. The substances were tested for their capacity to reverse KA-induced inhibition of TNFα production by LPS-stimulated human monocytes. Human monocytes were purified by negative selection from donor PBMCs using Miltenyi beads and seeded at 2×10^5 cells/well in complete growth medium (RPMI 1640, 10% FCS). Monocytes were incubated with 10 ng/mL LPS (O127:B8, #L4516, Sigma) and 200 uM KA (#3375, Sigma) and substances were added at concentrations of 1 uM, 0.3 uM and 0.1 uM and cultured for 18 hours. LPS alone served as the positive control. TNFα production in the supernatant was measured by Meso Scale Discovery immunoassay and the ability of the substances to rescue TNFα production was calculated as a percentage of LPS stimulation and KA-induced inhibition and normalized to the donor-specific response with the reference AHR antagonist compound GNF-351 (Smith et al., J Pharmacol Exp Ther, 2011, 338(1):318-27).

IC50 (AHR [1]) | IC50 (AHR [2]) | IC50 (AHR [3]) | Structure (SMILES) | Individual Donors Conc of highest rescue (human monocytes) | Individual Donors % rescue TNFα normalised to ref cmpd (human monocytes)
0.00369 µM | > 20 µM | 0.00249 µM | CC(C)[C@@H](CO)NC(=O)c1cc(-c2ccc(Cl)cc2)nn(-c2cnn(C)c2)c1=O [Example 16, 6-(4-Chlorophenyl)-N-[(2S)-1-hydroxy-3-methylbutan-2-yl]-2-(1-methyl-1H-pyrazol-4-yl)-3-oxo-2,3-dihydropyridazine-4-carboxamide] | 1 µM | 249% and 165%
0.0142 µM | > 20 µM | 0.0113 µM | Cn1cc(-n2nc(-c3ccc(Cl)cc3)cc(C(=O)NCC(O)C(F)(F)F)c2=O)cn1 (centres unmarked) [Example 18, 6-(4-Chlorophenyl)-2-(1-methyl-1H-pyrazol-4-yl)-3-oxo-N-(3,3,3-trifluoro-2-hydroxypropyl)-2,3-dihydropyridazine-4-carboxamide] | 1 μM (2×) and 0.3 μM (2×) | 83% and 73% and 76% and 105%
0.028 µM | > 20 µM | 0.0182 µM | Cn1cc(-n2nc(-c3ccc(Cl)cc3)cc(C(=O)NCC(O)C(F)F)c2=O)cn1 (centres unmarked) [Example 21, 6-(4-Chlorophenyl)-N-(3,3-difluoro-2-hydroxypropyl)-2-(1-methyl-1H-pyrazol-4-yl)-3-oxo-2,3-dihydropyridazine-4-carboxamide] | 0.3 µM and 1 µM | 87% and 77%
0.00152 µM | > 20 µM | 0.00166 µM | Cn1cc(-n2nc(-c3ccc(OC(F)(F)F)cc3)cc(C(=O)N[C@H](CO)C(F)(F)F)c2=O)cn1 [Example 47, 2-(1-Methyl-1H-pyrazol-4-yl)-3-oxo-N-[(2R)-1,1,1-trifluoro-3-hydroxypropan-2-yl]-6-[4-(trifluoromethoxy)phenyl]-2,3-dihydropyridazine-4-carboxamide] | 1 µM | 68% and 64%
0.0483 µM | > 20 µM | 0.105 µM | O=C(NC[C@@H](O)CO)c1cc(-c2ccc(C(F)(F)F)cc2)nn(-c2cccnc2)c1=O [Example 113, N-[(2R)-2,3-Dihydroxypropyl]-3-oxo-2-(pyridin-3-yl)-6-[4-(trifluoromethyl)phenyl]-2,3-dihydropyridazine-4-carboxamide] | 1 µM | 91% and 51%
0.00904 µM | > 20 µM | 0.00761 µM | O=C(N[C@@H]1CCC[C@@H]1O)c1cc(-c2ccc(Cl)cc2)nn(-c2cccnc2)c1=O [Example 138, 6-(4-Chlorophenyl)-N-[(1R,2S)-2-hydroxycyclopentyl]-3-oxo-2-(pyridin-3-yl)-2,3-dihydropyridazine-4-carboxamide] | 0.1 µM and 0.3 µM | 49% and 84%
0.0122 µM | > 20 µM | 0.0111 µM | O=C(N[C@H]1CCC[C@H]1O)c1cc(-c2ccc(OC(F)(F)F)cc2)nn(-c2cccnc2)c1=O [Example 147, N-[(1S,2R)-2-Hydroxycyclopentyl]-3-oxo-2-(pyridin-3-yl)-6-[4-(trifluoromethoxy)phenyl]-2,3-dihydropyridazine-4-carboxamide] | 0.1 µM and 0.3 µM | 50% and 89%
